Measurements as given in the OligoGym collection.
Several values for one entry are separate records, joined by “and”; a condition that tells them apart may be missing. Equal values may be shown once. HELM strings list units from the 5' end as sugar, base in round brackets, then linkage (d deoxyribose, r ribose, m 2'-O-methyl, p phosphodiester). Methylation of C is not given here. [moe] = 2'-O-(2-methoxyethyl) (MOE); [cEt] = constrained ethyl (cEt); [sp] = phosphorothioate linkage

Biological target: HBV
Details: ASO

## RNA1{[moe](A)[sp].[cEt](G)[sp].[cEt](G)[sp].d(T)[sp].d(G)[sp].d(A)[sp].d(A)[sp].d(G)[sp].d(C)[sp].d(G)[sp].d(A)[sp].d(A)[sp].d(G)[sp].[cEt](T)[sp].[cEt](G)[sp].[moe](C)}$$$$V2.0
HepG2, 0.009375 µM
  target mRNA inhibition: 21%
HepG2, 0.01875 µM
  target mRNA inhibition: 30%
HepG2, 0.0375 µM
  target mRNA inhibition: 39%
HepG2, 0.07 µM
  target mRNA inhibition: 79%
HepG2, 0.075 µM
  target mRNA inhibition: 61%
HepG2, 0.15 µM
  target mRNA inhibition: 79%
HepG2, 0.3 µM
  target mRNA inhibition: 91%

## RNA1{[moe](A)[sp].[cEt](G)[sp].[cEt](T)[sp].d(T)[sp].d(C)[sp].d(C)[sp].d(G)[sp].d(C)[sp].d(A)[sp].d(G)[sp].d(T)[sp].d(A)[sp].d(T)[sp].[cEt](G)[sp].[cEt](G)[sp].[moe](A)}$$$$V2.0
HepG2, 0.0092593 µM
  target mRNA inhibition: 12%
HepG2, 0.0277778 µM
  target mRNA inhibition: 25%
HepG2, 0.0833333 µM
  target mRNA inhibition: 73%
HepG2, 0.25 µM
  target mRNA inhibition: 84%

## RNA1{[moe](A)[sp].[cEt](G)[sp].d(C)[sp].d(G)[sp].d(A)[sp].d(A)[sp].d(G)[sp].d(T)[sp].d(G)[sp].d(C)[sp].d(A)[sp].d(C)[sp].[cEt](A)[sp].[moe](C)[sp].[cEt](G)[sp].[moe](G)}$$$$V2.0
HepG2, 0.0092593 µM
  target mRNA inhibition: 24%
HepG2, 0.0277778 µM
  target mRNA inhibition: 62%
HepG2, 0.07 µM
  target mRNA inhibition: 86% and 88%
HepG2, 0.0833333 µM
  target mRNA inhibition: 84%
HepG2, 0.25 µM
  target mRNA inhibition: 91%

## RNA1{[moe](A)[sp].[cEt](G)[sp].d(G)[sp].d(C)[sp].d(A)[sp].d(T)[sp].d(A)[sp].d(G)[sp].d(C)[sp].d(A)[sp].d(G)[sp].d(C)[sp].[cEt](A)[sp].[moe](G)[sp].[cEt](G)[sp].[moe](A)}$$$$V2.0
HepG2, 0.07 µM
  target mRNA inhibition: 66% and 52%

## RNA1{[moe](A)[sp].[cEt](T)[sp].[cEt](G)[sp].d(A)[sp].d(G)[sp].d(G)[sp].d(C)[sp].d(A)[sp].d(T)[sp].d(A)[sp].d(G)[sp].d(C)[sp].d(A)[sp].[cEt](G)[sp].[cEt](C)[sp].[moe](A)}$$$$V2.0
HepG2, 0.0092593 µM
  target mRNA inhibition: 13%
HepG2, 0.0277778 µM
  target mRNA inhibition: 14%
HepG2, 0.07 µM
  target mRNA inhibition: 65% and 83%
HepG2, 0.0833333 µM
  target mRNA inhibition: 55%
HepG2, 0.25 µM
  target mRNA inhibition: 70%

## RNA1{[moe](A)[sp].[cEt](T)[sp].[cEt](T)[sp].d(T)[sp].d(A)[sp].d(T)[sp].d(G)[sp].d(C)[sp].d(C)[sp].d(T)[sp].d(A)[sp].d(C)[sp].d(A)[sp].[cEt](G)[sp].[cEt](C)[sp].[moe](C)}$$$$V2.0
HepG2, 0.07 µM
  target mRNA inhibition: 57% and 46%

## RNA1{[moe](A)[sp].[moe](A)[sp].[moe](C)[sp].[moe](C)[sp].d(A)[sp].d(C)[sp].d(T)[sp].d(G)[sp].d(A)[sp].d(A)[sp].d(C)[sp].d(A)[sp].d(A)[sp].[moe](A)[sp].[moe](T)[sp].[moe](G)[sp].[moe](G)}$$$$V2.0
HepG2, 0.07 µM
  target mRNA inhibition: 57% and 55%

## RNA1{[moe](A)[sp].[moe](A)[sp].[moe](C)[sp].[moe](C)[sp].d(A)[sp].d(C)[sp].d(T)[sp].d(G)[sp].d(A)[sp].d(A)[sp].d(C)[sp].d(A)[sp].d(A)[sp].[moe](A)[sp].[moe](T)[sp].[moe](G)}$$$$V2.0
HepG2, 0.07 µM
  target mRNA inhibition: 52% and 54%

## RNA1{[moe](A)[sp].[moe](A)[sp].[moe](C)[sp].[moe](T)[sp].[moe](G)[sp].d(G)[sp].d(A)[sp].d(G)[sp].d(C)[sp].d(C)[sp].d(A)[sp].d(C)[sp].d(C)[sp].d(A)[sp].[moe](G)[sp].[moe](C)}$$$$V2.0
HepG2, 0.07 µM
  target mRNA inhibition: 50% and 39%

## RNA1{[moe](A)[sp].[moe](A)[sp].[moe](G)[sp].[cEt](C)[sp].d(G)[sp].d(A)[sp].d(A)[sp].d(G)[sp].d(T)[sp].d(G)[sp].d(C)[sp].d(A)[sp].d(C)[sp].[cEt](A)[sp].[moe](C)[sp].[moe](G)[sp].[moe](G)}$$$$V2.0
HepG2, 0.009375 µM
  target mRNA inhibition: 28%
HepG2, 0.01875 µM
  target mRNA inhibition: 27%
HepG2, 0.0375 µM
  target mRNA inhibition: 42%
HepG2, 0.075 µM
  target mRNA inhibition: 59%
HepG2, 0.15 µM
  target mRNA inhibition: 81%
HepG2, 0.3 µM
  target mRNA inhibition: 88%

## RNA1{[moe](A)[sp].[moe](A)[sp].[moe](G)[sp].[moe](C)[sp].[moe](G)[sp].[moe](A)[sp].d(A)[sp].d(G)[sp].d(T)[sp].d(G)[sp].d(C)[sp].d(A)[sp].d(C)[sp].d(A)[sp].d(C)[sp].[moe](G)[sp].[moe](G)}$$$$V2.0
HepG2, 0.0092593 µM
  target mRNA inhibition: 20%
HepG2, 0.0277778 µM
  target mRNA inhibition: 36%
HepG2, 0.07 µM
  target mRNA inhibition: 92% and 73%
HepG2, 0.0833333 µM
  target mRNA inhibition: 54%
HepG2, 0.25 µM
  target mRNA inhibition: 76%

## RNA1{[moe](A)[sp].[moe](A)[sp].[moe](G)[sp].[moe](C)[sp].[moe](G)[sp].d(A)[sp].d(A)[sp].d(G)[sp].d(T)[sp].d(G)[sp].d(C)[sp].d(A)[sp].d(C)[sp].d(A)[sp].[moe](C)[sp].[moe](G)}$$$$V2.0
HepG2, 0.07 µM
  target mRNA inhibition: 71% and 68%

## RNA1{[moe](A)[sp].[moe](A)[sp].[moe](G)[sp].d(C)[sp].d(G)[sp].d(A)[sp].d(A)[sp].d(G)[sp].d(T)[sp].d(G)[sp].d(C)[sp].d(A)[sp].[moe](C)[sp].[moe](A)[sp].[moe](C)[sp].[moe](G)}$$$$V2.0
HepG2, 0.07 µM
  target mRNA inhibition: 74% and 64%

## RNA1{[moe](A)[sp].[moe](A)[sp].[moe](T)[sp].[moe](T)[sp].d(T)[sp].d(A)[sp].d(T)[sp].d(G)[sp].d(C)[sp].d(C)[sp].d(T)[sp].d(A)[sp].d(C)[sp].[moe](A)[sp].[moe](G)[sp].[moe](C)[sp].[moe](C)}$$$$V2.0
HepG2, 0.07 µM
  target mRNA inhibition: 40% and 36%

## RNA1{[moe](A)[sp].[moe](A)[sp].[moe](T)[sp].d(T)[sp].d(T)[sp].d(A)[sp].d(T)[sp].d(G)[sp].d(C)[sp].d(C)[sp].d(T)[sp].d(A)[sp].[moe](C)[sp].[moe](A)[sp].[moe](G)[sp].[moe](C)[sp].[moe](C)}$$$$V2.0
HepG2, 0.07 µM
  target mRNA inhibition: 56% and 39%

## RNA1{[moe](A)[sp].[moe](A)[sp].d(G)[sp].d(A)[sp].d(T)[sp].d(G)[sp].d(A)[sp].d(G)[sp].d(G)[sp].d(C)[sp].d(A)[sp].[moe](T)[sp].[moe](A)[sp].[moe](G)[sp].[moe](C)[sp].[moe](A)[sp].[moe](G)}$$$$V2.0
HepG2, 0.07 µM
  target mRNA inhibition: 72% and 68%

## RNA1{[moe](A)[sp].[moe](A)[sp].d(T)[sp].d(T)[sp].d(T)[sp].d(A)[sp].d(T)[sp].d(G)[sp].d(C)[sp].d(C)[sp].d(T)[sp].[moe](A)[sp].[moe](C)[sp].[moe](A)[sp].[moe](G)[sp].[moe](C)[sp].[moe](C)}$$$$V2.0
HepG2, 0.07 µM
  target mRNA inhibition: 52% and 48%

## RNA1{[moe](A)[sp].[moe](C)[sp].[moe](C)[sp].[moe](A)[sp].[moe](A)[sp].[moe](T)[sp].d(T)[sp].d(T)[sp].d(A)[sp].d(T)[sp].d(G)[sp].d(C)[sp].d(C)[sp].d(T)[sp].d(A)[sp].[moe](C)[sp].[moe](A)}$$$$V2.0
HepG2, 0.07 µM
  target mRNA inhibition: 5% and 18%

## RNA1{[moe](A)[sp].[moe](C)[sp].[moe](C)[sp].[moe](A)[sp].[moe](A)[sp].d(T)[sp].d(T)[sp].d(T)[sp].d(A)[sp].d(T)[sp].d(G)[sp].d(C)[sp].d(C)[sp].d(T)[sp].[moe](A)[sp].[moe](C)[sp].[moe](A)}$$$$V2.0
HepG2, 0.07 µM
  target mRNA inhibition: 33% and 18%

## RNA1{[moe](A)[sp].[moe](C)[sp].[moe](C)[sp].[moe](A)[sp].[moe](C)[sp].d(T)[sp].d(G)[sp].d(A)[sp].d(A)[sp].d(C)[sp].d(A)[sp].d(A)[sp].d(A)[sp].d(T)[sp].[moe](G)[sp].[moe](G)}$$$$V2.0
HepG2, 0.07 µM
  target mRNA inhibition: 60% and 52%

## RNA1{[moe](A)[sp].[moe](C)[sp].[moe](C)[sp].[moe](A)[sp].d(C)[sp].d(T)[sp].d(G)[sp].d(A)[sp].d(A)[sp].d(C)[sp].d(A)[sp].d(A)[sp].d(A)[sp].[moe](T)[sp].[moe](G)[sp].[moe](G)[sp].[moe](C)}$$$$V2.0
HepG2, 0.07 µM
  target mRNA inhibition: 60% and 61%

## RNA1{[moe](A)[sp].[moe](C)[sp].[moe](G)[sp].[moe](T)[sp].[moe](G)[sp].[moe](C)[sp].d(A)[sp].d(G)[sp].d(A)[sp].d(G)[sp].d(G)[sp].d(T)[sp].d(G)[sp].d(A)[sp].d(A)[sp].[moe](G)[sp].[moe](C)}$$$$V2.0
HepG2, 0.07 µM
  target mRNA inhibition: 78% and 58%

## RNA1{[moe](A)[sp].[moe](C)[sp].[moe](G)[sp].d(T)[sp].d(G)[sp].d(C)[sp].d(A)[sp].d(G)[sp].d(A)[sp].d(G)[sp].d(G)[sp].d(T)[sp].[moe](G)[sp].[moe](A)[sp].[moe](A)[sp].[moe](G)[sp].[moe](C)}$$$$V2.0
HepG2, 0.07 µM
  target mRNA inhibition: 79% and 72%

## RNA1{[moe](A)[sp].[moe](C)[sp].[moe](T)[sp].[moe](A)[sp].d(G)[sp].d(T)[sp].d(A)[sp].d(A)[sp].d(A)[sp].d(C)[sp].d(T)[sp].d(G)[sp].d(A)[sp].[moe](G)[sp].[moe](C)[sp].[moe](C)}$$$$V2.0
HepG2, 0.07 µM
  target mRNA inhibition: 62% and 63%

## RNA1{[moe](A)[sp].[moe](C)[sp].[moe](T)[sp].[moe](G)[sp].d(G)[sp].d(A)[sp].d(G)[sp].d(C)[sp].d(C)[sp].d(A)[sp].d(C)[sp].d(C)[sp].d(A)[sp].[moe](G)[sp].[moe](C)[sp].[moe](A)}$$$$V2.0
HepG2, 0.07 µM
  target mRNA inhibition: 45% and 20%

## RNA1{[moe](A)[sp].[moe](C)[sp].[moe](T)[sp].d(A)[sp].d(G)[sp].d(T)[sp].d(A)[sp].d(A)[sp].d(A)[sp].d(C)[sp].d(T)[sp].d(G)[sp].[moe](A)[sp].[moe](G)[sp].[moe](C)[sp].[moe](C)}$$$$V2.0
HepG2, 0.07 µM
  target mRNA inhibition: 64% and 69%

## RNA1{[moe](A)[sp].[moe](C)[sp].[moe](T)[sp].d(G)[sp].d(G)[sp].d(A)[sp].d(G)[sp].d(C)[sp].d(C)[sp].d(A)[sp].d(C)[sp].d(C)[sp].[moe](A)[sp].[moe](G)[sp].[moe](C)[sp].[moe](A)[sp].[moe](G)}$$$$V2.0
HepG2, 0.07 µM
  target mRNA inhibition: 67% and 65%

## RNA1{[moe](A)[sp].[moe](C)[sp].d(C)[sp].d(A)[sp].d(A)[sp].d(T)[sp].d(T)[sp].d(T)[sp].d(A)[sp].d(T)[sp].d(G)[sp].[moe](C)[sp].[moe](C)[sp].[moe](T)[sp].[moe](A)[sp].[moe](C)[sp].[moe](A)}$$$$V2.0
HepG2, 0.07 µM
  target mRNA inhibition: 54% and 47%

## RNA1{[moe](A)[sp].[moe](C)[sp].d(G)[sp].d(T)[sp].d(G)[sp].d(C)[sp].d(A)[sp].d(G)[sp].d(A)[sp].d(G)[sp].d(G)[sp].[moe](T)[sp].[moe](G)[sp].[moe](A)[sp].[moe](A)[sp].[moe](G)[sp].[moe](C)}$$$$V2.0
HepG2, 0.0092593 µM
  target mRNA inhibition: 20%
HepG2, 0.0277778 µM
  target mRNA inhibition: 25%
HepG2, 0.07 µM
  target mRNA inhibition: 78%
HepG2, 0.0833333 µM
  target mRNA inhibition: 69%
HepG2, 0.25 µM
  target mRNA inhibition: 89%
